From US20120121691A1, “Method for Increasing the Production of a Specific ACYL-Chain Dihydroceramide(s) for Improving the Effectiveness of Cancer Treatments” (priority 2010, published 2012) come the findings set out here.

Series [1] relates to MOLT-4 ALL cells. Put plainly: DIMSCAN cytotoxicity assay, MOLT-4. Type of series: cell-based, human. The settings on record: MOLT-4, sphinganine 1 μM, GT-11 0.5 μM, 48 hours. The text has this: (§1) Cell culture. The pre-T acute lymphoblastic leukemia cell lines MOLT-4 and CCRF-CEM, small cell lung cancer cell line NCI-H146, non-small cell lung cancer cell line NCI-H1792, colon cancer cell lines LoVo and HT-29, and breast cancer cell line MCF-7, were purchased from American Type Culture Collection, Manassas, Va., and grown at 20%/5% and 5%/5%, respectively. COG-LL-317 and COG-LL-332 pre-T acute lymphoblastic leukemia cell lines were obtained from the TTUHSC Cancer Center Cell Repository and grown at 5%/5%. Cell line identities were verified by short tandem repeat analysis and mycoplasma testing was performed. Cell lines were maintained in RPMI-1640 medium supplemented with 10% fetal bovine serum (FBS, Invitrogen) in humidified, 37° C. incubators. For all experiments, ALL cell lines were seeded at […] in RPMI-1640 medium supplemented with 15% fetal bovine serum. Solid tumor cell lines were plated at 5×cells/mL in RPMI-1640 medium supplemented with 10% fetal bovine serum.
(§2) Cytotoxicity Assay. Cytoxicity is determined using the DIMSCAN assay system (R. Proffitt et al., Cytometry 24, 204-213 (1996); T. Frgala et al., Proc. AACR, 36, 303 (1995). The system employs digital imaging microscopy to quantify viable cells, which selectively accumulate fluorescein diacetate to become brightly fluorescent. The system is capable of measuring cytotoxicity over a 4-5 log dynamic range by quenching the residual fluorescence of dead and dying cells with eosin Y and quantifying the total fluorescence of viable cells using digital thresholding. Measured fluorescence is directly proportionate to the number of viable cells. A comparison of the total fluorescence of a drug-treated cell population to the fluorescence of a similar number of untreated cells yields a survival fraction. […]
(§3) The addition of C22:0-fatty acid, but not C18:0 or C22:1 fatty acids, increased cytotoxicity (FIGS. 7A-7F). […] Cytotoxicity was measured using DIMSCAN, and data was normalized to control and plotted as survival fraction (y-axis). […]

For series [2], the system named is COG-LL-332. Put plainly: DIMSCAN cytotoxicity assay, COG-LL-332. The settings on record: COG-LL-332, sphinganine 1 μM, GT-11 0.5 μM, 48 hours. Type of series: cell-based.
Excerpt: as §1, §2, §3

Series [3] concerns intracellular sphingolipids, COG-LL-317. Put plainly: LC/MS/MS analysis of intracellular sphingolipids, COG-LL-317. The settings on record: for increase in corresponding dihydroceramide over sphinganine+GT-11 alone: COG-LL-317, fatty acid with sphinganine+GT-11, six hours, P<0.05. The class given is cell-based, human. The method, then: LC/MS/MS analysis of intracellular sphingolipids. Sphingolipids were separated using an Agilent 1200 HPLC (LC) and determined by ESI/MS/MS performed on a AB SCIEX 4000 QTRAP Hybrid Triple Quadrupole/Linear Ion Trap mass spectrometer (MS), operating in a multiple reaction monitoring positive ionization mode as described previously with moderate modifications (25). Briefly, 50 μL of a solution (1 μM) of internal sphingolipid standards (including -sphingosine, -sphinganine, -sphingosine-1-phosphate, and -ceramide) was added to each cell pellet sample. Lipids of each sample were extracted twice with 2 mL of the ethyl acetate/isopropyl alcohol/water (60:28:12; v:v) solvent system. Supernatants were transferred to glass tubes (Kimble Chase) and evaporated under air (10 PSI) at 40° C. After reconstitution in methanol (4 mL), 1 ml of each sample was separated for the determination of lipid phosphate. Remaining sample (3 mL) was dried and used for sphingolipid quantification. For ESI/MS/MS, the dried lipid sample was dissolved in mobile phase A. Samples were injected (10 μL) and separated on a Spectra C8SR, 150×3.0 mm, 3-μm particle size column using gradient-elution (mobile phase A/B, prepared as previously described).
Data acquisition, peak integration and analyte quantitation were performed using ABI/SCIEX Analyst 1.4.2 Software. Sphingolipid data were normalized to lipid phosphate as previously described (26). Briefly, samples were dried under air (10 PSI) and lipids were extracted using the method of Bligh and Dyer (27). Of importance for phosphate assay, only Kimble Chase disposable borosilicate tubes were used for minimal sample contamination. Organic phase was transferred to glass tubes and a known volume was separated to a new tube and dried at 80° C. Phosphate standards and dried samples were then heated with ashing buffer (water:10 N:70% [40:9:1]) at 160° C. overnight. Samples were then incubated with ammonium molybdate and ascorbic acid as previously described, and absorbance ([…]) was read using a SpectraMax.
Cells were treated for 48 hours with Sa (0-4 μM)+/−GT-11 (0.5 μM) with or without C18:0-, C22:0- or C22:1-fatty acids. Cytotoxicity was measured using DIMSCAN, and data was normalized to control and plotted as survival fraction (y-axis). Gray and white symbols represent long and very long chain fatty acids, respectively. Gray lines encompass data used for sphingolipid correlation analysis with cytotoxicity. Datum point, mean; error bar, SEM. […]
Cytotoxicity was measured using DIMSCAN, and data was normalized to control and plotted as survival fraction (y-axis).

Structures are written as SMILES.

With `CCCCCCCCCCCCCCCCCCCCCC(=O)O` [C22:0-fatty acid], the “effect of fatty acid co-treatment on cytotoxicity of sphinganine with GT-11” value in series [1] and in series [2] was “increased” throughout. For the same compound, the “increase of C22:0-dihydroceramide compared to 4-HPR alone” value in series [3] (COG-LL-317, fatty acid with 4-HPR 1.1 μM, six hours, P<0.001) is reported as 11 fold. The “increase of C22:0-dihydroceramide over sphinganine+GT-11 alone” value in series [3] (COG-LL-317, fatty acid with sphinganine 1 μM plus GT-11 0.5 μM, six hours, P<0.003) turned out to be 13 fold. Also, the “increase in corresponding dihydroceramide over sphinganine+GT-11 alone” value in series [3] was “significant increases”.

For `CCCCCCCC/C=C\CCCCCCCCCCCC(=O)O` [C22:1-fatty acid], the “effect of fatty acid co-treatment on cytotoxicity of sphinganine with GT-11” value in series [1] and in series [2] was “not” in each case. In addition, the “increase in corresponding dihydroceramide over sphinganine+GT-11 alone” value in series [3] is “significant increases”.
